According to PubChem BioAssay AID256 (DTP/NCI, 2004):
Inconclusive results and toxic doses are left out. How the source made its calls: active means survival T/C of 150% or more; inactive means T/C below 125% in these data.

Test system: CD2F1 mice, L1210 leukemia ip, survival T/C
Assay: NCI In Vivo Anticancer Drug Screen. Data for tumor model L1210 Leukemia (intraperitoneal) in CD2F1 (CDF1) mice
Conditions: higher = longer survival
How it was run: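 Activity against a transplanted murine tumor was judged by comparing the compound group with a vehicle group. The outcome in the treated animals was divided by that in the controls.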

[1] = endpoint: mean survival time, dose: 100.0 mg/kg/injection, schedule: Q01DX001 (ip), vehicle: saline with Tween-80
[2] = endpoint: mean survival time, dose: 200.0 mg/kg/injection, schedule: Q01DX001 (ip), vehicle: saline with Tween-80
[3] = endpoint: mean survival time, dose: 100.0 mg/kg/injection, schedule: Q04DX003 (ip), vehicle: saline with Tween-80
[4] = endpoint: mean survival time, dose: 200.0 mg/kg/injection, schedule: Q04DX003 (ip), vehicle: saline with Tween-80
[5] = endpoint: mean survival time, dose: 400.0 mg/kg/injection, schedule: Q04DX003 (ip), vehicle: saline with Tween-80
[6] = endpoint: mean survival time, dose: 100.0 mg/kg/injection, schedule: Q04DX003 (ip), vehicle: saline
[7] = endpoint: mean survival time, dose: 200.0 mg/kg/injection, schedule: Q04DX003 (ip), vehicle: saline
[8] = endpoint: mean survival time, dose: 50.0 mg/kg/injection, schedule: Q01DX009 (ip), vehicle: saline with Tween-80
[9] = endpoint: mean survival time, dose: 100.0 mg/kg/injection, schedule: Q01DX009 (ip), vehicle: saline with Tween-80
[10] = endpoint: mean survival time, dose: 75.0 mg/kg/injection, schedule: Q01DX001 (ip), vehicle: saline
[11] = endpoint: mean survival time, dose: 150.0 mg/kg/injection, schedule: Q01DX001 (ip), vehicle: saline
[12] = endpoint: mean survival time, dose: 300.0 mg/kg/injection, schedule: Q01DX001 (ip), vehicle: saline
[13] = endpoint: mean survival time, dose: 25.0 mg/kg/injection, schedule: Q04DX003 (ip), vehicle: saline
[14] = endpoint: mean survival time, dose: 50.0 mg/kg/injection, schedule: Q04DX003 (ip), vehicle: saline

Measured: T/C

COc1ccc(C=NC2C(OC(C)=O)OC(COC(C)=O)C(OC(C)=O)C2OC(C)=O)cc1 (configuration not stated)
inactive: endpoint: mean survival time, dose: 6.25 mg/kg/injection, schedule: Q01DX009 (ip), vehicle: other 96 % of control | endpoint: mean survival time, dose: 12.5 mg/kg/injection, schedule: Q01DX009 (ip), vehicle: other 96 % of control | endpoint: mean survival time, dose: 25.0 mg/kg/injection, schedule: Q01DX009 (ip), vehicle: other 93 % of control | endpoint: mean survival time, dose: 50.0 mg/kg/injection, schedule: Q01DX009 (ip), vehicle: other 94 % of control | endpoint: mean survival time, dose: 100.0 mg/kg/injection, schedule: Q01DX009 (ip), vehicle: other 96 % of control

Nc1nc(-c2cccc([N+](=O)[O-])c2)c(N=Nc2ccc([N+](=O)[O-])cc2)s1
inactive: [1] 93 % of control | [2] 95 % of control

CN(Cc1cnc2nc(N)nc(N)c2n1)c1ccc(C(=O)NC(CCP(=O)(O)O)P(=O)(O)O)cc1 (configuration not stated)
inactive: endpoint: median survival time, dose: 0.38 mg/kg/injection, schedule: Q01DX009 (ip), vehicle: saline 101 % of control | endpoint: median survival time, dose: 0.75 mg/kg/injection, schedule: Q01DX009 (ip), vehicle: saline 101 % of control | endpoint: median survival time, dose: 1.5 mg/kg/injection, schedule: Q01DX009 (ip), vehicle: saline 98 % of control | endpoint: median survival time, dose: 3.0 mg/kg/injection, schedule: Q01DX009 (ip), vehicle: saline 102 % of control | endpoint: median survival time, dose: 6.0 mg/kg/injection, schedule: Q01DX009 (ip), vehicle: saline 102 % of control | endpoint: median survival time, dose: 12.0 mg/kg/injection, schedule: Q01DX009 (ip), vehicle: saline 101 % of control

CC(C)(O)C#CC#CC(C)(C)O
inactive: [1] 102 % of control | [2] 96 % of control

CCCCN(CNC(C)=O)N=O
inactive: endpoint: mean survival time, dose: 100.0 mg/kg/injection, schedule: Q04DX002 (ip), vehicle: saline with Tween-80 95 % of control | endpoint: mean survival time, dose: 200.0 mg/kg/injection, schedule: Q04DX002 (ip), vehicle: saline with Tween-80 88 % of control | endpoint: mean survival time, dose: 400.0 mg/kg/injection, schedule: Q04DX002 (ip), vehicle: saline with Tween-80 100 % of control

O=C(c1ccccc1)C(O)(Cc1ccccc1)c1ccccc1 (configuration not stated)
inactive: [3] 96 % of control | [4] 102 % of control | [5] 97 % of control

CCC(C)C(=O)CN(C)c1ccccc1 (configuration not stated)
inactive: [6] 102 % of control | [7] 102 % of control | endpoint: mean survival time, dose: 400.0 mg/kg/injection, schedule: Q04DX003 (ip), vehicle: saline 100 % of control

Nc1nc2c(c(=O)[nH]1)N1C(=S)N(c3ccc(C(=O)NC(CCC(=O)O)C(=O)O)cc3)CC1CN2 (configuration not stated)
inactive: endpoint: mean survival time, dose: 100.0 mg/kg/injection, schedule: Q01DX001 (ip), vehicle: sodium bicarbonate 104 % of control | endpoint: mean survival time, dose: 200.0 mg/kg/injection, schedule: Q01DX001 (ip), vehicle: sodium bicarbonate 98 % of control | endpoint: mean survival time, dose: 400.0 mg/kg/injection, schedule: Q01DX001 (ip), vehicle: sodium bicarbonate 102 % of control

O=C(Nc1c(Cl)cccc1Cl)Oc1ccc(Br)cc1
inactive: [8] 103 % of control | [9] 103 % of control

Cc1cn(C2CC(O)C(CO)O2)c(=O)nc1NCc1cccs1 (configuration not stated)
inactive: endpoint: median survival time, dose: 12.5 mg/kg/injection, schedule: Q01DX005 (ip), vehicle: water 103 % of control | endpoint: median survival time, dose: 25.0 mg/kg/injection, schedule: Q01DX005 (ip), vehicle: water 105 % of control | endpoint: median survival time, dose: 50.0 mg/kg/injection, schedule: Q01DX005 (ip), vehicle: water 106 % of control | endpoint: median survival time, dose: 100.0 mg/kg/injection, schedule: Q01DX005 (ip), vehicle: water 101 % of control | endpoint: median survival time, dose: 200.0 mg/kg/injection, schedule: Q01DX005 (ip), vehicle: water 103 % of control

Nc1ccc(C(=O)Nc2cccc(OCc3nc(N)nc(N)c3-c3ccc(Cl)cc3)c2)cc1
inactive: endpoint: mean survival time, dose: 50.0 mg/kg/injection, schedule: Q01DX001 (ip), vehicle: saline with Tween-80 93 % of control | [1] 93 % of control | [2] 93 % of control

CC(=O)OCC(OC(C)=O)C(OC(C)=O)C(OC(C)=O)C(COC(=O)c1ccccc1)OC(=O)c1ccccc1 (configuration not stated)
inactive: [1] 96 % of control | [2] 100 % of control | endpoint: mean survival time, dose: 400.0 mg/kg/injection, schedule: Q01DX001 (ip), vehicle: saline with Tween-80 96 % of control

CCOC(=O)/C(C#N)=C1/C=CCCC1
inactive: [10] 97 % of control | [11] 104 % of control | [12] 97 % of control

CNC(=O)Oc1cccc(NC(=O)OCCOC)c1
inactive: [3] 99 % of control | [4] 99 % of control | [5] 92 % of control

CNNCCC(=O)NC(C)C
inactive: [13] 106 % of control | [14] 103 % of control | [6] 101 % of control | [7] 91 % of control

COC(=O)C(N)CSCSCc1ccccc1 (configuration not stated)
inactive: endpoint: mean survival time, dose: 25.0 mg/kg/injection, schedule: Q01DX005 (ip), vehicle: water 101 % of control | endpoint: mean survival time, dose: 50.0 mg/kg/injection, schedule: Q01DX005 (ip), vehicle: water 93 % of control | endpoint: mean survival time, dose: 100.0 mg/kg/injection, schedule: Q01DX005 (ip), vehicle: water 93 % of control

CCCSCC(C)C
inactive: [3] 102 % of control | [4] 93 % of control | [5] 108 % of control

CC1CCC(=O)C2(C)CC3OC(=O)C(C)C3C=C12 (configuration not stated)
inactive: [3] 94 % of control | [4] 93 % of control | [5] 86 % of control

c1ccc2c(c1)CC1Sc3ccccc3N=C21 (configuration not stated)
inactive: [8] 91 % of control | [9] 91 % of control | endpoint: mean survival time, dose: 200.0 mg/kg/injection, schedule: Q01DX009 (ip), vehicle: saline with Tween-80 94 % of control

OCC(O)C1OC(SCc2ccccc2)C(O)C(O)C1O (configuration not stated)
inactive: [3] 91 % of control | [4] 100 % of control | [5] 107 % of control

FC(F)(F)C1(F)N(Cc2ccccc2)N=NC1(F)F (configuration not stated)
inactive: [10] 96 % of control | [11] 98 % of control | [12] 96 % of control

COC(=O)c1cc(Cl)c(C(=O)OC)cc1Cl
inactive: endpoint: mean survival time, dose: 100.0 mg/kg/injection, schedule: Q01DX009 (ip), vehicle: Klucel (hydroxypropylcellulose) (HPC) 92 % of control | endpoint: mean survival time, dose: 200.0 mg/kg/injection, schedule: Q01DX009 (ip), vehicle: Klucel (hydroxypropylcellulose) (HPC) 97 % of control | endpoint: mean survival time, dose: 400.0 mg/kg/injection, schedule: Q01DX009 (ip), vehicle: Klucel (hydroxypropylcellulose) (HPC) 102 % of control

COc1nc(NC2OC(CO)C(O)C(O)C2O)c(Br)c(=O)[nH]1 (configuration not stated)
inactive: endpoint: median survival time, dose: 12.5 mg/kg/injection, schedule: Q01DX005 (ip), vehicle: saline 100 % of control | endpoint: median survival time, dose: 25.0 mg/kg/injection, schedule: Q01DX005 (ip), vehicle: saline 101 % of control | endpoint: median survival time, dose: 50.0 mg/kg/injection, schedule: Q01DX005 (ip), vehicle: saline 102 % of control | endpoint: median survival time, dose: 100.0 mg/kg/injection, schedule: Q01DX005 (ip), vehicle: saline 101 % of control | endpoint: median survival time, dose: 200.0 mg/kg/injection, schedule: Q01DX005 (ip), vehicle: saline 101 % of control

NC(N)=Nc1cccc(OCCCOc2ccccc2)c1
inactive: endpoint: mean survival time, dose: 18.75 mg/kg/injection, schedule: Q01DX001 (ip), vehicle: saline with Tween-80 102 % of control | endpoint: mean survival time, dose: 37.5 mg/kg/injection, schedule: Q01DX001 (ip), vehicle: saline with Tween-80 98 % of control | endpoint: mean survival time, dose: 75.0 mg/kg/injection, schedule: Q01DX001 (ip), vehicle: saline with Tween-80 97 % of control

Cc1cccc(CC(F)(F)F)c1
inactive: [3] 102 % of control | [4] 100 % of control | [5] 89 % of control

CC(CN)OCc1ccccc1 (configuration not stated)
inactive: [13] 98 % of control | [14] 101 % of control | [6] 101 % of control

c1cc2[nH]c3ccncc3c2cn1
inactive: endpoint: mean survival time, dose: 50.0 mg/kg/injection, schedule: Q01DX009 (ip), vehicle: saline sonified 98 % of control | endpoint: mean survival time, dose: 100.0 mg/kg/injection, schedule: Q01DX009 (ip), vehicle: saline sonified 101 % of control
